# Laboratory results: article PMC4151706 (Journal of the American Chemical Society, 2014)
# Target: HIV-1 protease WT subtype C (Human immunodeficiency virus type 1 group M subtype C, UniProt O12158)
# Conditions: protease variant subtype C
# Sequence of HIV-1 protease WT subtype C (O12158 485-583): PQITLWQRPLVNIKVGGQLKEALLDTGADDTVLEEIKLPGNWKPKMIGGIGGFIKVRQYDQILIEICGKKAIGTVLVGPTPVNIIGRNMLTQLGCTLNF
structure (smiles),measurement,value
"CC(C)CN(C[C@@H](O)[C@H](Cc1ccccc1)NC(=O)O[C@H]1CO[C@H]2OCC[C@H]21)S(=O)(=O)c1ccc(N)cc1 [DRV, Darunavir]",Ki,5 ± 2 pM
